The numbers were not newly measured in patent USRE37771E1, “Purification of cinnamoyl-C-glycoside chromone” (Univera Pharmaceuticals, Inc., priority 1996, dated 2002), which cites them from elsewhere.

For series [1] the following is noted: in vivo assays; details in related U.S. application Ser. No. 08/391,139.
The subject of the next series is epithelial cell lines. Particulars: in vitro, details in related U.S. application Ser. No. 08/391,139.

As for `COc1cc(C)c2c(=O)cc(CC(C)O)oc2c1C1OC(CO)C(O)C(O)C1OC(=O)/C=C/c1ccccc1` [540 compound, 8-C-β-D-[2′-O-(E)-cinnamoyl]glycopyranosyl-2-[(S)-2-hydroxy]propyl-7-methoxy-5-methylchromone], in series [1], the anti-inflammatory activity entry was “potent anti-inflammatory activity”. The “inhibition of EGF-induced DNA synthesis” value in the series with epithelial cell lines is on record as “inhibit EGF-induced DNA synthesis”.
